Experimental data taken from US10662159B2, “ABHD6 and dual ABHD6/MGL inhibitors and their uses” (MAKScientific, LLC, priority 2017, dated 2020).

How the values were obtained:
Assay type in all cases: biochemical
Rat ΔTM FAAH = Rat ΔTM FAAH (Rattus norvegicus (Rat), UniProt P97612); test: Fluorescent assay for rat ΔTM FAAH (AAMCA substrate); settings: ΔTM rFAAH, AAMCA 20 μM; read-out: rFAAH Inhibition IC50
Procedure: Certain compounds were tested for their ABHD6 and dual ABHD6/MGL inhibitory activity, which is expressed as % of inhibition or IC50 values in Table 1. The percentage of inhibition describes the percentage by which the inhibitor reduces the velocity/rate of 2-AG hydrolysis by ABHD6, and MGL or AEA hydrolysis by FAAH. The IC50 is the concentration of the inhibitor, which results in 50% inhibition of the velocity/rate of 2-AG hydrolysis by ABHD6 or MGL. The IC50 is the concentration of the inhibitor, which results in 50% inhibition of the velocity/rate of AEA hydrolysis by FAAH. The lower the IC50 values, the higher its inhibitory activity. A detailed description of the methods used to test inhibitory activity of compounds is given below.
Example 79. Preparation of Transmembrane Domain-Deleted Rat FAAH (ΔTM rFAAH)
Rat ΔTM FAAH was expressed in E. coli cells and purified using the procedure disclosed by Patricelli et al. Biochemistry (1998) 37: 15177-15187.
Example 81. Fluorescent Assay Protocol for Rat ΔTM FAAH
The fluorescence reading at the 3 hour time point (linear enzyme kinetics) was used to calculate percent inhibition based on control assays without inhibitor present. All FAAH assays were performed in triplicate for each inhibitor concentration, and IC50 values determined using Prizm software (GraphPad Software, Inc.).

hABHD6 = hABHD6 (Homo sapiens (Human), UniProt Q9BV23); test: Fluorescent assay for hABHD6 (AHMMCE substrate hydrolysis); settings: membrane fraction containing full-length hABHD6, 20 μM AHMMCE; read-out: ABHD6 Inhibition IC50
Procedure: (§1) Certain compounds were tested for their ABHD6 and dual ABHD6/MGL inhibitory activity, which is expressed as % of inhibition or IC50 values in Table 1. The percentage of inhibition describes the percentage by which the inhibitor reduces the velocity/rate of 2-AG hydrolysis by ABHD6, and MGL or AEA hydrolysis by FAAH. […] The lower the IC50 values, the higher its inhibitory activity. A detailed description of the methods used to test inhibitory activity of compounds is given below.
Fluorescent Assays Protocol for hABHD6
Initial Fluorescent Inhibition Assay (3-Point)—
In each well of a 96-well plate 8 μL of membrane fraction containing full-length hABHD6 (1 μg total protein) was mixed with 168 μL of assay buffer (50 mM Tris-HCl, pH 7.6), and 20 μL of diluted compound (diluted in a dilution buffer consisting of 50% DMSO/50% assay buffer v/v). Each plate was incubated at RT for 15 minutes before adding 4 μL of 1 mM AHMMCE substrate (final concentration of 20 μM AHMMCE and final volume of 200 μL). The reaction was allowed to proceed for 1 hr at RT before the fluorescence was read at λex 360 nm and λem 460 nm and the inhibition calculated. Each experiment can test 8 compounds at three concentrations (usually 10 μM, 1 μM, and 100 nM).
IC50 Determination Assay (8-Point)—
A more detailed assay with an extended range tests compounds over 8 concentrations depending on the pre-determined approximate IC50 value from the initial screen. […] The assay was conducted in 96 well plate with each well containing the same reaction mixture detailed above in the 3-point screen. The relative fluorescence is quantified into coumarin produced by using a standard curve of HMMC in triplicate on each plate. Results are normalized to the negative control wells and the IC50 is determined using a non-linear regression curve fit in Prism, version 5 (GraphPad, San Diego, Calif.).

hMGL = hMGL (Homo sapiens (Human), UniProt Q99685); test: Fluorescent assay for hMGL (AHMMCE substrate hydrolysis); settings: E. coli lysate containing hMGL, read-out: hMGL Inhibition IC50
Procedure: as §1
Preparation of Human MAGL (hMAGL)
Fluorescent Assay Protocol for hMGL
This medium throughput assay involved a 96-well plate format in which hMGL activity was monitored by the hydrolysis of the substrate […] (AHMMCE) to form the fluorescent product, coumarin. […] Upon the addition of AHMMCE, the reaction was incubated at 25° C. for 120 min; fluorescence readings were taken every 15 min at 360 nm/460 nm (λexcitation/λemission) using a Synergy HT Plate Reader (Bio-Tek, Winooski, Vt.). […] External standards were used to convert relative fluorescence units to the amount of 4-methylcoumarin formed. All MGL assays were performed in triplicate for each inhibitor concentration, and IC50 values were calculated using Prizm software (GraphPad Software, Inc., San Diego, Calif.).

Chain of Rat ΔTM FAAH (P97612 30-579): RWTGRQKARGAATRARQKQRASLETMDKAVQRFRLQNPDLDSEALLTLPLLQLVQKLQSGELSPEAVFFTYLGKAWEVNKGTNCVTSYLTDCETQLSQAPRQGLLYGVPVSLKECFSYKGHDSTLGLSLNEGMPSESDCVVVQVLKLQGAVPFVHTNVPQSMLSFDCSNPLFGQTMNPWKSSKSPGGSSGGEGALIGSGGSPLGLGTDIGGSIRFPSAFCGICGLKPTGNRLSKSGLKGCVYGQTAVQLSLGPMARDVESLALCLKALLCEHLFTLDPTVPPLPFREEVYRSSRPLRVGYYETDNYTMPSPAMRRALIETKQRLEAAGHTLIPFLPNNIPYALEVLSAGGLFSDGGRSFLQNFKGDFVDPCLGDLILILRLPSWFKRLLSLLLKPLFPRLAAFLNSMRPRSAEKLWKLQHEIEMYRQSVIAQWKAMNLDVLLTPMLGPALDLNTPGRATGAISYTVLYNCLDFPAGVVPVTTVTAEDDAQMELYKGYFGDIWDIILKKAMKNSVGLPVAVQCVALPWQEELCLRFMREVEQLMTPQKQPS
Chain of hMGL (Q99685 whole entry): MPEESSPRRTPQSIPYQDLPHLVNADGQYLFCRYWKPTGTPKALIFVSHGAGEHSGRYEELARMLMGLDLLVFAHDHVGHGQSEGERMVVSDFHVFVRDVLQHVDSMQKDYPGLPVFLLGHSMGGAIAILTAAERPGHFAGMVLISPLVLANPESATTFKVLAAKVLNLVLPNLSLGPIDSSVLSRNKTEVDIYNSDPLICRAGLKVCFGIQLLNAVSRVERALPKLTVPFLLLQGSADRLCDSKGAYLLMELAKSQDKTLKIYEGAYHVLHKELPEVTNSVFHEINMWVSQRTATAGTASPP
Chain of hABHD6 (Q9BV23 whole entry): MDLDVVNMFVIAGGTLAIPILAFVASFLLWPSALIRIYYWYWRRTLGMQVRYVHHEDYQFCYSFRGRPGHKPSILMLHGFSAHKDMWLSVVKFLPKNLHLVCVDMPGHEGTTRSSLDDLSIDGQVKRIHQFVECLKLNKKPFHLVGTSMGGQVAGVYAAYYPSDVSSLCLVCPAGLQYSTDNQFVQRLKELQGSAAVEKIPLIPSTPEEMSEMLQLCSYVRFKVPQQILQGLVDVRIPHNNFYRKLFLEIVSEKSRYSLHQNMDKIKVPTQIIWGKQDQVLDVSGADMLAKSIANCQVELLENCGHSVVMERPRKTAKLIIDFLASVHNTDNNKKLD

| SMILES | IC50 (Rat ΔTM FAAH) [nM] | IC50 (hABHD6) [nM] | IC50 (hMGL) [nM] |
| --- | --- | --- | --- |
| O=C(OC(CF)CF)N1CCc2c(Br)cccc2C1 [Example 5, 1,3-Difluoropropan-2-yl 5-bromo-3,4-dihydroisoquinoline-2(1H)-carboxylate] | > 1000 | > 1000 | > 1000 |
| COc1cccc2c1CCN(C(=O)OC(C(F)(F)F)C(F)(F)F)C2 [Example 22, 1,1,1,3,3,3-Hexafluoropropan-2-yl 5-methoxy-3,4-dihydroisoquinoline-2(1H)-carboxylate] | > 1000 | 10 to 100 | > 1000 |
| COc1ccc2c(c1)CCN(C(=O)OC(C(F)(F)F)C(F)(F)F)C2 [Example 23, 1,1,1,3,3,3-Hexafluoropropan-2-yl 6-methoxy-3,4-dihydroisoquinoline-2(1H)-carboxylate] | > 1000 | 10 to 100 | > 1000 |
| O=C(OC(C(F)(F)F)C(F)(F)F)N1Cc2ccc(-c3ccccc3)cc2C1 [Example 25, 1,1,1,3,3,3-Hexafluoropropan-2-yl 5-phenylisoindoline-2-carboxylate] | > 1000 | 10 to 100 | > 1000 |
| O=C(OC(C(F)(F)F)C(F)(F)F)N1CCc2c(cccc2-c2ccccc2)C1 [Example 28, 1,1,1,3,3,3-Hexafluoropropan-2-yl 5-phenyl-3,4-dihydroisoquinoline-2(1H)-carboxylate] | > 1000 | 100 to 1000 | > 1000 |
| CN1CCN(c2ccc3c(c2)CN(C(=O)OC(C(F)(F)F)C(F)(F)F)C3)CC1 [Example 29, 1,1,1,3,3,3-Hexafluoropropan-2-yl 5-(4-methylpiperazin-1-yl)isoindoline-2-carboxylate] | > 1000 | 100 to 1000 | > 1000 |
| O=C(OC(C(F)(F)F)C(F)(F)F)N1Cc2ccc(N3CCCC3)cc2C1 [Example 30, 1,1,1,3,3,3-Hexafluoropropan-2-yl 5-(pyrrolidin-1-yl)isoindoline-2-carboxylate] | > 1000 | 10 to 100 | > 1000 |
| O=C(OC(C(F)(F)F)C(F)(F)F)N1Cc2ccc(N3CCS(=O)(=O)CC3)cc2C1 [Example 31, 1,1,1,3,3,3-Hexafluoropropan-2-yl 5-(1,1-dioxidothiomorpholino)isoindoline-2-carboxylate] | > 1000 | 10 to 100 |  |
| O=C(OC(C(F)(F)F)C(F)(F)F)N1Cc2ccc(N3CCOCC3)cc2C1 [Example 32, 1,1,1,3,3,3-Hexafluoropropan-2-yl 5-morpholinoisoindoline-2-carboxylate] | > 1000 | 10 to 100 | > 1000 |
| CC1(C)C2C(=O)N(OC(=O)N3CCc4c(Br)cccc4C3)C(=O)C21 (centres unmarked) [Example 35, 6,6-Dimethyl-2,4-dioxo-3-azabicyclo[3.1.0]hexan-3-yl 5-bromo-3,4-dihydroisoquinoline-2(1H)-carboxylate] | > 1000 | 10 to 100 | > 1000 |
| O=C1C2CC2C(=O)N1ON1CCc2c(Br)cccc2C1 (centres unmarked) [Example 37, 3-((5-Bromo-3,4-dihydroisoquinolin-2(1H)-yl)oxy)-3-azabicyclo[3.1.0]hexane-2,4-dione] | > 1000 | 100 to 1000 | > 1000 |
| COc1ccc2c(c1)CN(C(=O)ON1C(=O)C3C(C1=O)C3(C)C)C2 (centres unmarked) [Example 38, 6,6-Dimethyl-2,4-dioxo-3-azabicyclo[3.1.0]hexan-3-yl 5-methoxyisoindoline-2-carboxylate] | > 1000 | > 1000 | > 1000 |
| CC1(C)C2C(=O)N(OC(=O)N3Cc4ccc(N5CCOCC5)cc4C3)C(=O)C21 (centres unmarked) [Example 39, 6,6-Dimethyl-2,4-dioxo-3-azabicyclo[3.1.0]hexan-3-yl 5-morpholinoisoindoline-2-carboxylate] | > 1000 | 10 to 100 | > 1000 |
| O=C(O[C@H](CO)C(F)(F)F)N1CCc2c(Br)cccc2C1 [Example 40, (R)-1,1,1-trifluoro-3-hydroxypropan-2-yl 5-bromo-3,4-dihydroisoquinoline-2(1H)-carboxylate] | > 1000 | 10 to 100 | > 1000 |
| O=C(OC(C(F)(F)F)C(F)(F)F)N1CCc2c(cccc2OCCCF)C1 [Example 41, 1,1,1,3,3,3-Hexafluoropropan-2-yl 5-(3-fluoropropoxy)-3,4-dihydroisoquinoline-2(1H)-carboxylate] | > 1000 | 10 to 100 | > 1000 |
| O=C(OC(C(F)(F)F)C(F)(F)F)N1Cc2ccc(OCCCF)cc2C1 [Example 42, 1,1,1,3,3,3-Hexafluoropropan-2-yl 5-(3-fluoropropoxy)isoindoline-2-carboxylate] | > 1000 | 10 to 100 | > 1000 |
| O=C(OC(C(F)(F)F)C(F)(F)F)N1Cc2ccc(OCC3CC3)cc2C1 [Example 43, 1,1,1,3,3,3-Hexafluoropropan-2-yl 5-(cyclopropylmethoxy)isoindoline-2-carboxylate] | > 1000 | 10 to 100 | > 1000 |
| O=C(OC(C(F)(F)F)C(F)(F)F)N1Cc2ccc(OCCN3CCOCC3)cc2C1 [Example 44, 1,1,1,3,3,3-Hexafluoropropan-2-yl 5-(2-morpholinoethoxy)isoindoline-2-carboxylate] | > 1000 | 100 to 1000 | > 1000 |
| CN(C)CCOc1ccc2c(c1)CN(C(=O)OC(C(F)(F)F)C(F)(F)F)C2 [Example 46, 1,1,1,3,3,3-Hexafluoropropan-2-yl 5-(2-(dimethylamino)ethoxy)isoindoline-2-carboxylate] | > 1000 | 10 to 100 | 10 to 100 |
| O=C(OC(C(F)(F)F)C(F)(F)F)N1Cc2ccc(NCCN3CCOCC3)cc2C1 [Example 47, 1,1,1,3,3,3-Hexafluoropropan-2-yl 5-((2-morpholinoethyl)amino)isoindoline-2-carboxylate] | > 1000 | 10 to 100 | > 1000 |
| O=C(OC(C(F)(F)F)C(F)(F)F)N1Cc2ccc(OCCN3CCCCC3)cc2C1 [Example 48, 1,1,1,3,3,3-Hexafluoropropan-2-yl 5-(2-(piperidin-1-yl)ethoxy)isoindoline-2-carboxylate] | > 1000 | 10 to 100 | 10 to 100 |
| O=C(OC(C(F)(F)F)C(F)(F)F)N1Cc2ccc(OCCN3CCCC3)cc2C1 [Example 49, 1,1,1,3,3,3-Hexafluoropropan-2-yl 5-(2-(pyrrolidin-1-yl)ethoxy)isoindoline-2-carboxylate] | > 1000 | 10 to 100 | 10 to 100 |
| O=C(COc1ccc2c(c1)CN(C(=O)OC(C(F)(F)F)C(F)(F)F)C2)N1CCOCC1 [Example 50, 1,1,1,3,3,3-Hexafluoropropan-2-yl 5-(2-morpholino-2-oxoethoxy)isoindoline-2-carboxylate] | > 1000 | 10 to 100 | 10 to 100 |
| O=C(OC(C(F)(F)F)C(F)(F)F)N1CC2(CCC(Oc3cccc(F)c3)C2)C1 (centres unmarked) [Example 59, 1,1,1,3,3,3-Hexafluoropropan-2-yl 6-(3-fluorophenoxy)-2-azaspiro[3.4]octane-2-carboxylate] | 10 to 100 | 10 to 100 | 10 to 100 |
